Values quoted from earlier work as cited in PMC4422128, “Discovery of sea urchin NGFFFamide receptor unites a bilaterian neuropeptide family” (Open Biology, 2015).
“Also recorded” adds a separate entry of the source. Positions of bridges follow the written chain, without caps; N, C: chain ends. No end group written: not given here.

Columns and labels:
arthropods = conditions: insects (b4)
Description: Furthermore, the ligand that activ ... || Our discovery that the NPS/CCAP-type receptor in the sea urchin S. purpuratus is activated by the NG peptide NGFFFamide provides a basis for investigation of the physiological roles of NG peptides in deuterostomian invertebrates. This will provide new insights into the evolution of the physiological and behavioural functions of NPS/NG peptide/CCAP-type neuropeptides in the animal kingdom. Based upon what is currently known, a common theme seems to be a role in control of behaviours that are associated with a heightened state of arousal. Thus, NPS causes anxiolysis and arousal in mammals, ...

[1] = system: NPSR-type protein in Drosophila
Description: Furthermore, the ligand that activ ...

crab hearts = system: crab hearts; design: method as in PMID 16593803
VRR1/GPR154 (NPSR) = system: VRR1/GPR154 (NPSR); design: method as in PMID 15312648; conditions: purified from brain extracts
rodents = rodents (b3); mammals
Description: This will provide new insights into the evolution of the physiological and behavioural functions of NPS/NG peptide/CCAP-type neuropeptides in the animal kingdom. Based upon what is currently known, a common theme seems to be a role in control of behaviours that are associated with a heightened state of arousal. Thus, NPS causes anxiolysis and arousal in mammals, ...

Substance	control/activation of ecdysis (arthropods)	activation of NPSR-type protein in Drosophila [1]	effect on crab hearts (crab hearts)	ligand activity at VRR1/GPR154, NPS (VRR1/GPR154 (NPSR))	physiological action of NPS: anxiety (rodents)	physiological action of NPS: arousal (rodents)
PFCNAFTGC-NH2 (disulfide 3-9 (inferred)) [CCAP, crustacean cardioactive peptide]	activates the ecdysis motor programme; also recorded: controls ecdysis behaviour in insects	activates the NPSR-type protein in Drosophila	excitatory effect on crab hearts	–	–	–
SFRNGVGTGMKKTSFQRAKS [NPS, neuropeptide-S]	–	–	–	endogenous ligand	anxiolytic-like action; also recorded: anxiolysis	causing arousal
